{"source": "patent US11612604B2", "about": "“Methods of treating cancer with PLK4 inhibitors” (LUDWIG INSTITUTE FOR CANCER RESEARCH LTD, priority 2017, dated 2023)", "key": {"[1]": {"tested_on": "RPE1, BT-12, BT-16, CHP212, CHP134 and SK-N-F1 cells", "test": "Assessing mitotic phenotypes and mitotic duration by live cell imaging", "format": "cell-based", "conditions": "for rates of anaphase failure and/or cell death during mitosis: three cell cycles in 150 nM centrinone", "description": "To examine the effects of centrosome removal, progression through mitosis after centrosome depletion was analyzed in three control cell lines with low TRIM37 levels (RPE1, BT-12 and BT-16), and in the three cell lines with the highest TRIM37 levels (CHP212, CHP134 and SK-N-F1). All of the tested cell lines, with the exception of SK-N-F1, were p53+.\nFor cells that completed mitosis, the inventors measured mitotic duration to determine if they would be likely to die due to tripping the mitotic duration sensor. […] The mean duration of mitosis in control SK-N-F1 cells, a p53− neuroblastoma cell line, was longer (104.7 minutes).\nAssessing mitotic phenotypes: First, the cell cycle duration of the indicated cell lines was determined for each cell line by imaging cells expressing H2B-mRFP for 48-72 hours. The mean time from the beginning the first mitosis (nuclear envelope breakdown) until the beginning of the second mitosis in each daughter cell was the cell line specific cell cycle duration. […] Cells were seeded into 96-well polystyrene plates at 10,000 cells/well, 14-16 hours before imaging. Images were acquired on a CQ1 spinning disk confocal systems (Yokogawa Electric Corporation) with an Olympus UPLSAPO40 X 40×0.95 objective and 2560×2160 sCMOS camera (Andor) at 37° C. and 5% CO2 at 2×2 binning. Image acquisition and data analysis were performed using CellVoyager software and ImageJ, respectively. 12-24 fields/well were imaged. 5×2 μm z-sections in RFP (25% power, 150 ms) channels were captured in each field at 4-minute intervals for 24 hours. Mitotic duration was measured as the interval between nuclear envelope breakdown and chromosome decondensation. Mitotic phenotypes were categorized into ‘bipolar’, ‘multipolar’, ‘cell death during mitosis’ and ‘anaphase failure’."}, "[2]": {"tested_on": "caspase-3/7 activity in 'Sensitive' neuroblastoma and 'Not Sensitive' (RPE1, BT-12, BT-16) cell lines", "test": "Caspase activation assay", "format": "cell-based", "conditions": "150 nM centrinone, four cell cycle durations"}, "[3]": {"tested_on": "control cell lines (HepG2, BT-12, BT-16, SK-ES-1, A673)", "test": "Proliferation (12-day passaging) assay, control cell lines", "format": "cell-based", "conditions": "150 nM centrinone, 12 days, five control cell lines", "description": "(§1) All 6 of the neuroblastoma cell lines grew robustly in the presence of DMSO in 12-day passaging assays.\n(§2) Plated cell numbers were adjusted to the cell line characteristics (doubling time and cell size). At 96-hour intervals, plates were harvested, counted and re-plated at 25,000-150,000 cells/plate. Cell counting was performed using a TC20 automated cell counter (Bio-Rad)."}, "[4]": {"tested_on": "RPE1 cells and primary cell cultures", "conditions": "cited from earlier work"}, "[5]": {"tested_on": "CHP134 cells harboring the G95L mutant PLK4", "test": "Proliferation (passaging) assay, CHP134 cells with G95L mutant PLK4", "format": "cell-based", "conditions": "150 nM centrinone", "description": "as §1\n(§3) Cell lines: Cells were maintained in ATCC-recommended complete growth media with 100 U/mL penicillin and 100 μg/mL streptomycin at 37° C. and 5% CO2. The RPE-1 TRIM37Δ knockout cell line was previously described (Meitinger et al., 2016). The CHP134 and HCT116 TRIM37Δ knockout cell lines were generated by transfection and nucleofection, respectively, of preassembled RNPs using a TRIM37 specific gRNA ([…]). The CHP134 G95L cell line was generated as previously described (Wong et al., 2015). For generation of H2B-mRFP expressing cell lines, cells were infected with a H2B-mRFP expressing lentiviral construct (Meitinger et al., 2016). Populations of each cell line expressing H2B-mRFP were enriched by FACS. To knock down TP53 (p53), cells were infected with a lentivirus containing sh-p53 made using the plasmid shp53 pLKO.1 puro (Godar et al., Cell. 134:62-73 (2008)). Positive selection of sh-p53 expressing cells was performed 2 days after infection with 10 μg/ml puromycin.\nas §2"}, "[6]": {"tested_on": "CHP134 cells and CHP134 clones with varying TRIM37 levels", "test": "ATPlite cellular proliferation assay in CHP134 clones", "format": "cell-based", "conditions": "5 days in 125 nM centrinone, WT CHP134 cells", "description": "After CRISPR targeting, CHP134 clones with varying TRIM37 copy numbers were isolated and the levels of TRIM37 protein were measured by quantitative western blotting. Alpha-tubulin was used as a blotting control. Clones with TRIM37 levels between 12 and 64% of the levels in the WT cell line were isolated. […] Results are expressed as the percent of the value for the equivalent DMSO-treated control and are plotted versus measured TRIM37 protein level. […] Thus, for centrinone-treated CHP134 cells, mitotic success and cell viability both decreased as TRIM37 levels increased."}, "[7]": {"tested_on": "breast cancer cell lines (BT474, MCF7, MDA-MB-231)", "test": "Proliferation (passaging) assay, breast cancer cell lines", "format": "cell-based", "conditions": "150 nM centrinone, BT474 and MCF7 (TRIM37 locus amplified)", "description": "Sensitivity to centrosome removal correlated with TRIM37 copy number in breast cancer as well. FIG. 3A is a graph plotting TRIM37 copy number versus expression level for breast cancer cell lines (data from the CCLE database; (Barretina et al., 2012)).\nas §2"}, "[8]": {"tested_on": "CHP134 cells in which TRIM37 was deleted, p53 was knocked down, or both", "test": "Proliferation (12-day passaging) assay, CHP134 TRIM37 deletion / p53 knockdown cells", "format": "cell-based", "description": "as §3, §2"}, "[9]": {"tested_on": "neuroblastoma cell lines (SH-SY5Y, CHP134, IMR32, CHP212, SK-N-SH, SK-N-F1)", "test": "Proliferation (12-day passaging) assay, neuroblastoma cell lines", "format": "cell-based", "conditions": "150 nM centrinone, 12 days, all 6 neuroblastoma cell lines", "description": "as §1, §2"}}, "data": [{"smiles": "COc1c(Nc2cc(C)[nH]n2)nc(Sc2ccc(S(=O)(=O)Cc3cccc([N+](=O)[O-])c3F)cc2F)nc1N1CCOCC1", "note": "[centrinone]", "values": [{"measurement": "mean duration of mitosis after centrosome removal", "setting": "[1]; CHP134", "value": 257, "unit": "min"}, {"measurement": "cells that fail to segregate their chromosomes", "setting": "[1]; CHP134, absence of centrioles (FIG. 5A)", "value": "about 36%"}, {"measurement": "mean duration of mitosis after centrosome removal", "setting": "[1]; CHP212", "value": 221, "unit": "min"}, {"measurement": "mitotic duration", "setting": "[1]; control RPE1 cells and RPE1 TRIM37Δ reconstituted with wild-type TRIM37, after centrinone", "value": "substantial increase in mitotic duration"}, {"measurement": "rates of anaphase failure and/or cell death during mitosis", "setting": "[1]; cell lines with high TRIM37 levels (CHP212, CHP134, SK-N-F1)", "value": "31-74%"}, {"measurement": "rates of anaphase failure and/or cell death during mitosis", "setting": "[1]; three cell lines with low TRIM37 levels (RPE1, BT-12, BT-16)", "value": "3-14%"}, {"measurement": "caspase activity", "setting": "[2]; 'Not Sensitive' cell lines (RPE1, BT-12, BT-16)", "value": "relatively low levels"}, {"measurement": "caspase activity", "setting": "[2]; three 'Sensitive' neuroblastoma cell lines", "value": "high levels of caspase activity"}, {"measurement": "proliferation in passaging assay", "setting": "[3]", "value": "continued to proliferate"}, {"measurement": "response to centrinone-induced centrosome loss", "setting": "[4]; RPE1 cells and 3 primary cell cultures with intact p53 pathway (Wong et al.)", "value": "stabilize p53 and arrest in G1"}, {"measurement": "effect on centriole duplication", "setting": "[4]; centrinone treatment (Wong et al.)", "value": "blocks centriole duplication"}, {"measurement": "proliferation in passaging assay", "setting": "[5]", "value": "proliferated in centrinone at a rate comparable to non-mutant cells in DMSO"}, {"measurement": "cellular proliferation (ATPlite), percent of DMSO-treated control", "setting": "[6]", "value": "loss in proliferation comparable to that of the two highest mutant clones"}, {"measurement": "sensitivity to centrosome removal in passaging assay", "setting": "[7]", "value": "highly sensitive"}, {"measurement": "proliferation in passaging assay", "setting": "[8]; centrinone, CHP134 with TRIM37 deleted and p53 knocked down", "value": "robust proliferation in centrinone"}, {"measurement": "proliferation in 12-day passaging assay", "setting": "[8]; centrinone, CHP134 with shRNA-mediated knockdown of p53", "value": "allowed CHP134 cells to proliferate"}, {"measurement": "proliferation in 12-day passaging assay", "setting": "[8]; centrinone-treated CHP134, TRIM37 deletion", "value": "enabled their proliferation"}, {"measurement": "cell number in passaging assay", "setting": "[9]", "value": "cell number rapidly declined to zero"}]}]}
